{"source": "ChEMBL document CHEMBL3885881", "about": "“DrugMatrix”", "species_on_record": "Rattus norvegicus", "experiment": "DrugMatrix - Regimen: Daily Repeat", "assay_type": "toxicity, organism-based, Sprague-Dawley", "set-up": "regimen Daily Repeat, gender Male, age 6-8 weeks", "conditions": "in vivo, po, 300 mg/kg, route oral GAVAGE, dose level High, vehicle .5 % CMC; for ABSOLUTE BASOPHIL / ABSOLUTE EOSINOPHIL / ABSOLUTE LYMPHOCYTE / ABSOLUTE MONOCYTE / ABSOLUTE SEGMENTED NEUTROPHIL / BASOPHIL / EOSINOPHIL / ERYTHROCYTE COUNT / HEMATOCRIT / HEMOGLOBIN / LEUKOCYTE COUNT / LYMPHOCYTE / MEAN CORPUSCULAR HEMOGLOBIN / MEAN CORPUSCULAR HEMOGLOBIN CONCENTRATION / MEAN CORPUSCULAR VOLUME / MONOCYTE / NEUTROPHIL / NUCLEATED RED BLOOD CELLS / PLATELET COUNT: tissue Blood; for ALANINE AMINOTRANSFERASE / ALBUMIN / ALKALINE PHOSPHATASE / ASPARTATE AMINOTRANSFERASE / BLOOD UREA NITROGEN / CARBON DIOXIDE / CHLORIDE / CHOLESTEROL / CREATINE PHOSPHOKINASE / CREATININE / GLUCOSE / LACTATE DEHYDROGENASE / LIPASE / PHOSPHORUS / POTASSIUM / SODIUM / TOTAL BILIRUBIN / TOTAL PROTEIN / URIC ACID: tissue Plasma"}
{"smiles": "CC(=O)S[C@@H]1CC2=CC(=O)CC[C@]2(C)[C@H]2CC[C@@]3(C)[C@@H](CC[C@@]34CCC(=O)O4)[C@H]12", "note": "[SPIRONOLACTONE]", "values": [{"measurement": "ABSOLUTE BASOPHIL", "setting": "72 h, time 3 day", "value": 0, "unit": "CELLS/uL"}, {"measurement": "ABSOLUTE EOSINOPHIL", "setting": "72 h, time 3 day", "value": 0, "unit": "CELLS/uL"}, {"measurement": "ABSOLUTE LYMPHOCYTE", "setting": "72 h, time 3 day", "value": 10747, "unit": "CELLS/uL"}, {"measurement": "ABSOLUTE MONOCYTE", "setting": "72 h, time 3 day", "value": 38, "unit": "CELLS/uL"}, {"measurement": "ABSOLUTE SEGMENTED NEUTROPHIL", "setting": "72 h, time 3 day", "value": 481.67, "unit": "CELLS/uL"}, {"measurement": "BASOPHIL", "setting": "72 h, time 3 day", "value": 0, "unit": "%"}, {"measurement": "EOSINOPHIL", "setting": "72 h, time 3 day", "value": 0, "unit": "%"}, {"measurement": "ERYTHROCYTE COUNT", "setting": "72 h, time 3 day", "value": 5.83, "unit": "x10E6/uL"}, {"measurement": "HEMATOCRIT", "setting": "72 h, time 3 day", "value": 37.33, "unit": "%"}, {"measurement": "HEMOGLOBIN", "setting": "72 h, time 3 day", "value": 14.97, "unit": "G/DL"}, {"measurement": "LEUKOCYTE COUNT", "setting": "72 h, time 3 day", "value": 11.27, "unit": "x10E3/uL"}, {"measurement": "LYMPHOCYTE", "setting": "72 h, time 3 day", "value": 95.33, "unit": "%"}, {"measurement": "MEAN CORPUSCULAR HEMOGLOBIN", "setting": "72 h, time 3 day", "value": 25.67, "unit": "pg"}, {"measurement": "MEAN CORPUSCULAR HEMOGLOBIN CONCENTRATION", "setting": "72 h, time 3 day", "value": 40.07, "unit": "G/DL"}, {"measurement": "MEAN CORPUSCULAR VOLUME", "setting": "72 h, time 3 day", "value": 64.03, "unit": "fL"}, {"measurement": "MONOCYTE", "setting": "72 h, time 3 day", "value": 0.33, "unit": "%"}, {"measurement": "NEUTROPHIL", "setting": "72 h, time 3 day", "value": 4.33, "unit": "%"}, {"measurement": "NUCLEATED RED BLOOD CELLS", "setting": "72 h, time 3 day", "value": "0 /100WBC"}, {"measurement": "PLATELET COUNT", "setting": "72 h, time 3 day", "value": 1193, "unit": "x10E3/uL"}, {"measurement": "ALANINE AMINOTRANSFERASE", "setting": "72 h, time 3 day", "value": 95, "unit": "u/L"}, {"measurement": "ALBUMIN", "setting": "72 h, time 3 day", "value": 4.27, "unit": "G/DL"}, {"measurement": "ALKALINE PHOSPHATASE", "setting": "72 h, time 3 day", "value": 425.67, "unit": "u/L"}, {"measurement": "ASPARTATE AMINOTRANSFERASE", "setting": "72 h, time 3 day", "value": 757, "unit": "u/L"}, {"measurement": "BLOOD UREA NITROGEN", "setting": "72 h, time 3 day", "value": 16.67, "unit": "mg/dL"}, {"measurement": "CARBON DIOXIDE", "setting": "72 h, time 3 day", "value": 22.67, "unit": "mmol/L"}, {"measurement": "CHLORIDE", "setting": "72 h, time 3 day", "value": 101.33, "unit": "MEQ/L"}, {"measurement": "CHOLESTEROL", "setting": "72 h, time 3 day", "value": 65.67, "unit": "mg/dL"}, {"measurement": "CREATINE PHOSPHOKINASE", "setting": "72 h, time 3 day", "value": 5158.67, "unit": "u/L"}, {"measurement": "CREATININE", "setting": "72 h, time 3 day", "value": 0.2, "unit": "mg/dL"}, {"measurement": "GLUCOSE", "setting": "72 h, time 3 day", "value": 152.67, "unit": "mg/dL"}, {"measurement": "LACTATE DEHYDROGENASE", "setting": "72 h, time 3 day", "value": 2756, "unit": "u/L"}, {"measurement": "LIPASE", "setting": "72 h, time 3 day", "value": 11, "unit": "u/L"}, {"measurement": "PHOSPHORUS", "setting": "72 h, time 3 day", "value": 12.67, "unit": "mg/dL"}, {"measurement": "POTASSIUM", "setting": "72 h, time 3 day", "value": 9.65, "unit": "MEQ/L"}, {"measurement": "SODIUM", "setting": "72 h, time 3 day", "value": 142.53, "unit": "MEQ/L"}, {"measurement": "TOTAL BILIRUBIN", "setting": "72 h, time 3 day", "value": 0.3, "unit": "mg/dL"}, {"measurement": "TOTAL PROTEIN", "setting": "72 h, time 3 day", "value": 6.07, "unit": "G/DL"}, {"measurement": "URIC ACID", "setting": "72 h, time 3 day", "value": 3.73, "unit": "mg/dL"}, {"measurement": "ABSOLUTE BASOPHIL", "setting": "120 h, time 5 day", "value": 0, "unit": "CELLS/uL"}, {"measurement": "ABSOLUTE EOSINOPHIL", "setting": "120 h, time 5 day", "value": 55.67, "unit": "CELLS/uL"}, {"measurement": "ABSOLUTE LYMPHOCYTE", "setting": "120 h, time 5 day", "value": 15788, "unit": "CELLS/uL"}, {"measurement": "ABSOLUTE MONOCYTE", "setting": "120 h, time 5 day", "value": 55.67, "unit": "CELLS/uL"}, {"measurement": "ABSOLUTE SEGMENTED NEUTROPHIL", "setting": "120 h, time 5 day", "value": 1134, "unit": "CELLS/uL"}, {"measurement": "BASOPHIL", "setting": "120 h, time 5 day", "value": 0, "unit": "%"}, {"measurement": "EOSINOPHIL", "setting": "120 h, time 5 day", "value": 0.33, "unit": "%"}, {"measurement": "ERYTHROCYTE COUNT", "setting": "120 h, time 5 day", "value": 5.9, "unit": "x10E6/uL"}, {"measurement": "HEMATOCRIT", "setting": "120 h, time 5 day", "value": 35.17, "unit": "%"}, {"measurement": "HEMOGLOBIN", "setting": "120 h, time 5 day", "value": 14.23, "unit": "G/DL"}, {"measurement": "LEUKOCYTE COUNT", "setting": "120 h, time 5 day", "value": 17.03, "unit": "x10E3/uL"}, {"measurement": "LYMPHOCYTE", "setting": "120 h, time 5 day", "value": 92.67, "unit": "%"}, {"measurement": "MEAN CORPUSCULAR HEMOGLOBIN", "setting": "120 h, time 5 day", "value": 24.17, "unit": "pg"}, {"measurement": "MEAN CORPUSCULAR HEMOGLOBIN CONCENTRATION", "setting": "120 h, time 5 day", "value": 40.47, "unit": "G/DL"}, {"measurement": "MEAN CORPUSCULAR VOLUME", "setting": "120 h, time 5 day", "value": 59.6, "unit": "fL"}, {"measurement": "MONOCYTE", "setting": "120 h, time 5 day", "value": 0.33, "unit": "%"}, {"measurement": "NEUTROPHIL", "setting": "120 h, time 5 day", "value": 6.67, "unit": "%"}, {"measurement": "NUCLEATED RED BLOOD CELLS", "setting": "120 h, time 5 day", "value": "0 /100WBC"}, {"measurement": "PLATELET COUNT", "setting": "120 h, time 5 day", "value": 1586.67, "unit": "x10E3/uL"}, {"measurement": "ALANINE AMINOTRANSFERASE", "setting": "120 h, time 5 day", "value": 70.33, "unit": "u/L"}, {"measurement": "ALBUMIN", "setting": "120 h, time 5 day", "value": 4.23, "unit": "G/DL"}, {"measurement": "ALKALINE PHOSPHATASE", "setting": "120 h, time 5 day", "value": 327.33, "unit": "u/L"}, {"measurement": "ASPARTATE AMINOTRANSFERASE", "setting": "120 h, time 5 day", "value": 72.33, "unit": "u/L"}, {"measurement": "BLOOD UREA NITROGEN", "setting": "120 h, time 5 day", "value": 17.33, "unit": "mg/dL"}, {"measurement": "CARBON DIOXIDE", "setting": "120 h, time 5 day", "value": 27.33, "unit": "mmol/L"}, {"measurement": "CHLORIDE", "setting": "120 h, time 5 day", "value": 101.33, "unit": "MEQ/L"}, {"measurement": "CHOLESTEROL", "setting": "120 h, time 5 day", "value": 60.67, "unit": "mg/dL"}, {"measurement": "CREATINE PHOSPHOKINASE", "setting": "120 h, time 5 day", "value": 189.67, "unit": "u/L"}, {"measurement": "CREATININE", "setting": "120 h, time 5 day", "value": 0.21, "unit": "mg/dL"}, {"measurement": "GLUCOSE", "setting": "120 h, time 5 day", "value": 158.33, "unit": "mg/dL"}, {"measurement": "LACTATE DEHYDROGENASE", "setting": "120 h, time 5 day", "value": 134.33, "unit": "u/L"}, {"measurement": "LIPASE", "setting": "120 h, time 5 day", "value": 10.33, "unit": "u/L"}, {"measurement": "PHOSPHORUS", "setting": "120 h, time 5 day", "value": 11.07, "unit": "mg/dL"}, {"measurement": "POTASSIUM", "setting": "120 h, time 5 day", "value": 6.24, "unit": "MEQ/L"}, {"measurement": "SODIUM", "setting": "120 h, time 5 day", "value": 145.57, "unit": "MEQ/L"}, {"measurement": "TOTAL BILIRUBIN", "setting": "120 h, time 5 day", "value": 0.2, "unit": "mg/dL"}, {"measurement": "TOTAL PROTEIN", "setting": "120 h, time 5 day", "value": 6.17, "unit": "G/DL"}, {"measurement": "URIC ACID", "setting": "120 h, time 5 day", "value": 2, "unit": "mg/dL"}]}
